Assay results published in PubChem BioAssay AID248 (DTP/NCI, 2004).
Several values for one entry are separate records, joined by “and”; a condition that tells them apart may be missing. Equal entries are not always repeated. Toxic doses and inconclusive results are not listed. Rule as the data show it: active = T/C of 150% or more; inactive = T/C below 125%.

Test system: L1210 leukemia ip in BDF1 mice, survival T/C
Experiment: NCI In Vivo Anticancer Drug Screen. Data for tumor model L1210 Leukemia (intraperitoneal) in B6D2F1 (BDF1) mice
Settings: endpoint: mean survival time, higher = longer survival
Outline: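 Tumor was transplanted into mice, which were then dosed with test compound or vehicle alone. Survival was recorded for each group, and the treated figure was expressed relative to the control figure.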

[1] = dose: 100.0 mg/kg/injection, schedule: Q01DX001 (ip), vehicle: carboxymethylcellulose (CMC)
[2] = dose: 200.0 mg/kg/injection, schedule: Q01DX001 (ip), vehicle: carboxymethylcellulose (CMC)
[3] = dose: 400.0 mg/kg/injection, schedule: Q01DX001 (ip), vehicle: carboxymethylcellulose (CMC)
[4] = dose: 100.0 mg/kg/injection, schedule: Q01DX009 (ip), vehicle: Klucel (hydroxypropylcellulose) (HPC)
[5] = dose: 100.0 mg/kg/injection, schedule: Q04DX003 (ip), vehicle: Klucel (hydroxypropylcellulose) (HPC)
[6] = dose: 200.0 mg/kg/injection, schedule: Q01DX009 (ip), vehicle: Klucel (hydroxypropylcellulose) (HPC)
[7] = dose: 200.0 mg/kg/injection, schedule: Q04DX003 (ip), vehicle: Klucel (hydroxypropylcellulose) (HPC)
[8] = dose: 400.0 mg/kg/injection, schedule: Q01DX009 (ip), vehicle: Klucel (hydroxypropylcellulose) (HPC)
[9] = dose: 400.0 mg/kg/injection, schedule: Q04DX003 (ip), vehicle: Klucel (hydroxypropylcellulose) (HPC)
[10] = dose: 100.0 mg/kg/injection, schedule: Q04DX002 (ip), vehicle: Klucel (hydroxypropylcellulose) (HPC)
[11] = dose: 200.0 mg/kg/injection, schedule: Q04DX002 (ip), vehicle: Klucel (hydroxypropylcellulose) (HPC)
[12] = dose: 100.0 mg/kg/injection, schedule: Q01DX001 (ip), vehicle: saline
[13] = dose: 200.0 mg/kg/injection, schedule: Q01DX001 (ip), vehicle: saline
[14] = dose: 400.0 mg/kg/injection, schedule: Q01DX001 (ip), vehicle: saline
[15] = dose: 100.0 mg/kg/injection, schedule: Q04DX003 (ip), vehicle: saline with Tween-80
[16] = dose: 200.0 mg/kg/injection, schedule: Q04DX003 (ip), vehicle: saline with Tween-80
[17] = dose: 400.0 mg/kg/injection, schedule: Q04DX003 (ip), vehicle: saline with Tween-80
[18] = dose: 100.0 mg/kg/injection, schedule: Q01DX001 (ip), vehicle: Klucel (hydroxypropylcellulose) (HPC)
[19] = dose: 200.0 mg/kg/injection, schedule: Q01DX001 (ip), vehicle: Klucel (hydroxypropylcellulose) (HPC)

Measured: T/C

CCCN(CCC#N)CN1C(=O)c2ccccc2C1=O
inactive: [1] 110 % of control | dose: 100.0 mg/kg/injection, schedule: Q01DX009 (ip), vehicle: carboxymethylcellulose (CMC) 90 % of control | dose: 100.0 mg/kg/injection, schedule: Q04DX002 (ip), vehicle: carboxymethylcellulose (CMC) 98 % of control and 100 % of control | dose: 100.0 mg/kg/injection, schedule: Q04DX003 (ip), vehicle: carboxymethylcellulose (CMC) 95 % of control | [2] 113 % of control | dose: 200.0 mg/kg/injection, schedule: Q01DX009 (ip), vehicle: carboxymethylcellulose (CMC) 93 % of control | dose: 200.0 mg/kg/injection, schedule: Q04DX002 (ip), vehicle: carboxymethylcellulose (CMC) 94 % of control and 102 % of control | dose: 200.0 mg/kg/injection, schedule: Q04DX003 (ip), vehicle: carboxymethylcellulose (CMC) 101 % of control | [3] 97 % of control | dose: 400.0 mg/kg/injection, schedule: Q01DX009 (ip), vehicle: carboxymethylcellulose (CMC) 100 % of control | dose: 400.0 mg/kg/injection, schedule: Q04DX002 (ip), vehicle: carboxymethylcellulose (CMC) 94 % of control and 97 % of control | dose: 400.0 mg/kg/injection, schedule: Q04DX003 (ip), vehicle: carboxymethylcellulose (CMC) 107 % of control

CN(C)/C=C(\C#N)C=O
inactive: dose: 75.0 mg/kg/injection, schedule: Q01DX001 (ip), vehicle: saline 103 % of control | dose: 150.0 mg/kg/injection, schedule: Q01DX001 (ip), vehicle: saline 101 % of control

C1SCC12CSC2
inactive: dose: 6.25 mg/kg/injection, schedule: Q01DX001 (ip), vehicle: saline with Tween-80 93 % of control | dose: 12.5 mg/kg/injection, schedule: Q01DX001 (ip), vehicle: saline with Tween-80 96 % of control | dose: 25.0 mg/kg/injection, schedule: Q01DX001 (ip), vehicle: saline with Tween-80 104 % of control

CSc1ccccc1C[P+](c1ccccc1)(c1ccccc1)c1ccccc1
inactive: dose: 1.56 mg/kg/injection, schedule: Q01DX009 (ip), vehicle: saline with Tween-80 102 % of control | dose: 3.13 mg/kg/injection, schedule: Q01DX009 (ip), vehicle: saline with Tween-80 103 % of control | dose: 6.25 mg/kg/injection, schedule: Q01DX009 (ip), vehicle: saline with Tween-80 105 % of control

COc1ccc(Cl)cc1NC(=O)Nc1ccccc1
inactive: [4] 87 % of control | [5] 99 % of control | [6] 94 % of control | [7] 97 % of control | [8] 89 % of control | [9] 92 % of control

O=C1C=Cc2ccccc2/C1=C/c1nc(-c2ccc(Cl)cc2)oc1O
inactive: [10] 95 % of control | [11] 91 % of control

O=C(Nc1ccc(O)cc1)c1ccc([N+](=O)[O-])cc1
inactive: [4] 94 % of control | [6] 95 % of control | [8] 100 % of control

CC(=O)OCC1OC(OC(C)=O)C(OC(C)=O)C1OC(C)=O (centres undefined)
inactive: [12] 107 % of control | [13] 106 % of control | [14] 102 % of control

OCC[CH2][Pb]([c]1ccccc1)([c]1ccccc1)[c]1ccccc1
inactive: dose: 3.12 mg/kg/injection, schedule: Q04DX003 (ip), vehicle: Klucel (hydroxypropylcellulose) (HPC) 94 % of control | dose: 6.25 mg/kg/injection, schedule: Q04DX003 (ip), vehicle: Klucel (hydroxypropylcellulose) (HPC) 97 % of control

O=Cc1ccc(C(=O)O)cc1
inactive: [15] 98 % of control | [16] 96 % of control | [17] 95 % of control

CCOC(=O)Sc1nc2ccccc2[nH]1
inactive: dose: 75.0 mg/kg/injection, schedule: Q04DX003 (ip), vehicle: saline with Tween-80 101 % of control | dose: 150.0 mg/kg/injection, schedule: Q04DX003 (ip), vehicle: saline with Tween-80 98 % of control | dose: 300.0 mg/kg/injection, schedule: Q04DX003 (ip), vehicle: saline with Tween-80 87 % of control

CC(C)C/C=N/Nc1ccnc(SCc2ccccc2)n1
inactive: dose: 100.0 mg/kg/injection, schedule: Q04DX003 (ip), vehicle: DMSO 95 % of control | dose: 200.0 mg/kg/injection, schedule: Q04DX003 (ip), vehicle: DMSO 103 % of control | dose: 400.0 mg/kg/injection, schedule: Q04DX003 (ip), vehicle: DMSO 95 % of control

CCOC(=O)/C=C\n1c(=O)cc(C)c2cc3c(C)cc(=O)n(C)c3cc21
inactive: dose: 50.0 mg/kg/injection, schedule: Q01DX001 (ip), vehicle: Klucel (hydroxypropylcellulose) (HPC) 99 % of control | [18] 87 % of control | [19] 92 % of control

CCOC(=O)C(C)C(=O)Cc1cc(OC)c(C)cc1Br (centres undefined)
inactive: dose: 100.0 mg/kg/injection, schedule: Q01DX009 (ip), vehicle: saline with Tween-80 97 % of control | [15] 97 % of control | dose: 200.0 mg/kg/injection, schedule: Q01DX009 (ip), vehicle: saline with Tween-80 100 % of control | [16] 95 % of control | dose: 400.0 mg/kg/injection, schedule: Q01DX009 (ip), vehicle: saline with Tween-80 105 % of control | [17] 109 % of control

CCCCCCCCCCCCCCCCOc1ccc(S(=O)(=O)Nc2cc(C(=O)OC)cc(C(=O)OC)c2)cc1[N+](=O)[O-]
inactive: [4] 98 % of control | [5] 93 % of control | [6] 97 % of control | [7] 95 % of control | [8] 92 % of control | [9] 91 % of control

Cc1ccc(S(=O)(=O)OCC2C3CCC(c4ccccc43)C2COS(=O)(=O)c2ccc(C)cc2)cc1 (centres undefined)
inactive: [5] 109 % of control | [7] 105 % of control | [9] 88 % of control

Oc1cccc2c(NC(=S)Nc3ccccc3)cccc12
inactive: [4] 101 % of control | [10] 96 % of control | [6] 101 % of control | [11] 104 % of control | dose: 400.0 mg/kg/injection, schedule: Q04DX002 (ip), vehicle: Klucel (hydroxypropylcellulose) (HPC) 100 % of control

CC1C(C(=O)c2ccc(-c3ccccc3)cc2)N1C(C)(C)C (centres undefined)
inactive: [18] 87 % of control | [19] 93 % of control | dose: 400.0 mg/kg/injection, schedule: Q01DX001 (ip), vehicle: Klucel (hydroxypropylcellulose) (HPC) 94 % of control

COC1OC(COC(c2ccccc2)(c2ccccc2)c2ccccc2)C2SC12 (centres undefined)
inactive: dose: 50.0 mg/kg/injection, schedule: Q01DX001 (ip), vehicle: carboxymethylcellulose (CMC) 102 % of control | [1] 107 % of control | [2] 100 % of control | [3] 96 % of control

C[C@]12CC[C@@H]3c4ccc(O)cc4CC[C@H]3[C@@H]1C[C@H](O)C2
inactive: dose: 100.0 mg/kg/injection, schedule: Q01DX001 (sc), vehicle: steriod suspending solution 98 % of control | dose: 100.0 mg/kg/injection, schedule: Q04DX003 (sc), vehicle: steriod suspending solution 96 % of control | dose: 200.0 mg/kg/injection, schedule: Q01DX001 (sc), vehicle: steriod suspending solution 102 % of control | dose: 200.0 mg/kg/injection, schedule: Q04DX003 (sc), vehicle: steriod suspending solution 104 % of control | dose: 400.0 mg/kg/injection, schedule: Q01DX001 (sc), vehicle: steriod suspending solution 105 % of control | dose: 400.0 mg/kg/injection, schedule: Q04DX003 (sc), vehicle: steriod suspending solution 94 % of control

O=C1N/C(=N\OCCc2ccccc2)CC(NOCCc2ccccc2)N1 (centres undefined)
inactive: [15] 94 % of control | [16] 94 % of control | [17] 97 % of control

O=C1OC(c2ccccc2)=N/C1=C\c1ccccc1Cl
inactive: dose: 100.0 mg/kg/injection, schedule: Q04DX002 (ip), vehicle: saline with Tween-80 87 % of control | dose: 200.0 mg/kg/injection, schedule: Q04DX002 (ip), vehicle: saline with Tween-80 94 % of control

COC(=O)c1ccccc1N(Cc1ccc(OC)c(OC)c1)S(=O)(=O)c1ccc(C)cc1
inactive: [12] 95 % of control | [13] 91 % of control | [14] 91 % of control
